Drawing on PubChem BioAssay AID624491 (Broad Institute, 2012), this text covers AC26 for 37 compounds.

The assay has as its system D54 ERlucT glycosylation luciferase reporter, luminescence, 24 h. Kind of assay: blockers of NLG process in reporter cells – D54 ERlucT cells, luminescence, cherry-picks, dose response (AID 624491).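 Note: signal gain reflects blocked N-linked glycosylation of a luciferase reporter; actives raise luciferase signal so AC26 marks activators of the reporter.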

For `CN(C)S(=O)(=O)c1ccc(N2CCCC2)c(C(=O)Nc2ccccc2)c1`, the AC26 was 957 nM.

`COc1ccccc1NC(=O)/C=C/c1ccc2c(c1)OCO2`: the AC26 was 3780 nM.

`COc1cccc(C2=NOC(C(=O)NCc3ccc(F)cc3)C2)c1` (configuration not stated): the AC26 was 1160 nM.

With `CCN(CC)c1ccc(/C=N\NC(=O)c2cccc3cc[nH]c23)cc1`, the AC26 is 1860 nM.

On to `Cc1ccc(-n2nc(C)c(NC(=O)CCl)c2C)cc1C`, for which the AC26 was 653 nM.

As to `N#Cc1c(-c2ccc(F)cc2)c(-c2ccc(F)cc2)nn(CCO)c1=O`, the AC26 is 2080 nM.

For the compound `COc1cc(NC(=O)c2cc(-c3ccccc3)nc3c2cnn3C(C)C)cc(OC)c1OC`, the AC26 is 1150 nM.

Turning to `NS(=O)(=O)c1ccc(NC(=O)c2cccc3cc4ccccc4nc23)cc1`, the AC26 is 1320 nM.

Turning to `CCOc1ccc(Br)cc1C(=O)Nc1ccc(C(=O)NCC(C)C)cc1`, the AC26 was 4090 nM.

Regarding `COc1ccc(NC(=O)c2ccc([N+](=O)[O-])o2)cc1`, the AC26 was 1020 nM.

With `CN(/N=C/c1ccc(N(C)C)cc1)C1=NS(=O)(=O)c2ccccc21`, the AC26 is 1610 nM.

Consider `Cc1ccc(NC(=O)c2cc(S(=O)(=O)N(C)C)ccc2N2CCCC2)cc1S(=O)(=O)N(C)C`, for which the AC26 was 276 nM.

For the compound `Cc1ccc(-n2nc(C)c(NC(=O)CCl)c2C)cc1`, the AC26 is 2210 nM.

Turning to `COc1cccc(OCc2nc3ncc(Br)cc3[nH]2)c1`, the AC26 is 1810 nM.

For `NS(=O)(=O)c1cc(C(=O)NCCOc2ccccc2)c(Cl)cc1Cl`, the AC26 is 5620 nM.

With `COc1cc(NC(=O)NCc2ccco2)ccc1-c1ccc(NC(=O)NCc2ccco2)cc1OC`, the AC26 is 4350 nM.

Regarding `CC1CN(C(=O)c2cc(-c3ccncc3)nc3ccccc23)CC(C)O1` (configuration not stated), the AC26 is 2020 nM.

With `C#CC[N+](C)(C)CCCCCCCCCCCC`, the AC26 was 7360 nM.

On to `COc1cc(-c2nnc(SCC3(c4ccc(Br)cc4)OCCO3)o2)cc(OC)c1OC`, for which the AC26 is 210 nM.

As to `CCOC(=O)c1c(CN(C)C)n(C)c2c(O)c(N=NC(N)=O)c3ccc(Br)cc3c12`, the AC26 was 242 nM.

Take `COc1cc(OC)c(C2=NOC(C(=O)NCc3cccs3)C2)cc1Cl` (configuration not stated): the AC26 is 5250 nM.

Consider `C=CCN(CC=C)S(=O)(=O)c1ccc(C(=O)Nc2nc3c(s2)CCc2ccccc2-3)cc1`, for which the AC26 is 6790 nM.

Regarding `COC(=O)CNC(c1ccccc1)c1cc(Br)ccc1NC(=O)CCN1CCOCC1` (configuration not stated), the AC26 is 4810 nM.

In the case of `O=C(NCCc1ccc(F)cc1)c1coc(=O)c(Br)c1`, the AC26 was 413 nM.

`O=C(CSc1nnc(-c2cc3ccccc3cc2O)n1Cc1ccco1)N1CCc2ccccc2C1`: the AC26 is 702 nM.

With `COc1cc(C(=O)OCCCN2CCCN(CCCOC(=O)c3cc(OC)c(OC)c(OC)c3)CC2)cc(OC)c1OC`, the AC26 was 1550 nM.

Consider `COc1ccc(C2C(C(=O)Nc3cc(OC)c(OC)c(OC)c3)c3ccccc3C(=O)N2C)cc1` (configuration not stated), for which the AC26 was 5180 nM.

Turning to `CCc1ccc(Oc2coc3cc(OCC(=O)Nc4cc(C)ccc4C)ccc3c2=O)cc1`, the AC26 was 4860 nM.

In the case of `Cc1cc(C)cc(-n2c3ccc(NC(=O)Cc4cccc5ccccc45)cc3c(=O)n2C)c1`, the AC26 is 1780 nM.

As to `O=C(N/N=C/c1c(-c2ccccc2)[nH]c2ccccc12)c1cccnc1`, the AC26 is 117 nM.

Consider `Cc1ccc(O)c(C(=O)C=Cc2ccccc2)c1`, for which the AC26 was 1210 nM.

For the compound `C[C@@]12C(=O)Nc3cc(Cl)ccc3C(=O)N1[C@H]1c3cc(Br)ccc3OC[C@@H]1[C@@H]2c1ccccc1`, the AC26 was 961 nM.

Take `COc1ccc(NCC(=O)n2c(C)c(C)c3ccccc32)cc1`: the AC26 was 3640 nM.

Turning to `O=C1OCC2=C1C(c1ccc3c(c1)OCO3)c1cc3c(cc1O2)OCO3` (configuration not stated), the AC26 is 661 nM.

As to `COc1cc(C(=O)N/N=C/c2cc([N+](=O)[O-])cs2)cc(OC)c1OC`, the AC26 was 349 nM.

For `COc1ccc(CCn2c(=N)c(C(=O)NCCN3CCOCC3)cc3c(=O)n4cccc(C)c4nc32)cc1OC`, the AC26 is 739 nM.

Regarding `Cc1ccc(C(=O)N/C(=C\c2cccs2)C(=O)NCCc2c[nH]c3ccccc23)cc1C`, the AC26 is 4860 nM.
